From patent US11596626B2, “Compound for use against pathogenic Neisseria and Haemophilus species and Moraxella catarrhalis” (priority 2017, dated 2023)
Entries after “also recorded” stand apart in the source; their conditions may differ.

What was measured:
[1] = tested on: N. gonorrhoeae; assay: Vaginal colonization of CEAtg female mice, re-isolation of gonococci by swab; format: in vivo, Neisseria gonorrhoeae
Experimental: By using genetically modified mice (CEA-transgenic; CEAtg mice), which express a human receptor for the gonococcal Opa-adhesin on their mucosal surface, it is possible to study the initial colonization of the upper genital tract by N. gonorrhoeae and to re-isolate these pathogens after intra-vaginal challenge (FIG. 7). 6 to 8 week old, female wildtype (black) or CEA-transgenic (CEAtg, red) mice were infected with N. gonorrhoeae. 2 h after infection, the animals were treated with 20 μl buffer containing solvent (DMSO) or 50 μM NQNO (Compound represented by the Formula (5)). 20 h later, vaginal swaps were taken and plated on selective agar. Each dot refers to bacteria isolated from an individual animal (n≥5) (cf. FIG. 7). […]
In a further experiment, experimental vaginal infection of female mice with N. gonorrhoeae was performed as previously described in the literature (P. Muenzner, V. Bachmann, J. Hentschel, W. Zimmermann, C. R. Hauck, Human-restricted bacterial pathogens block shedding of epithelial cells by stimulating integrin activation. Science 329, 1197-1201 (2010)). […] Serial dilutions of re-isolated bacteria were plated on GC agar containing chloramphenicol (10 μg/ml) and erythromycin (7 μg/ml) and the colonies were counted after 20 h of incubation at 37° C., 5% CO2.

[2] = Stability in DMEM with 10% fetal calf serum by LC-MS; format: physicochemical; details: 100 μM in DMEM with 10% fetal calf serum, 24° C. and 37° C.
Experimental: Stability of 100 μM NQNO in Dulbecco's modified Eagle's medium (DMEM) medium supplemented with 10% fetal calf serum at 24° C. and 37° C. was evaluated over a period of 4 days. Samples were taken at the beginning (day 0) and every second day. Samples were analyzed by LC-MS and the integrals of the detected NQNO (by using extracted ion chromatograms) compared to the integral of the control (100 μM NQNO in H2O) which was set to 100%.

## CCCCCCCCCc1cc(=O)c2ccccc2n1O [NQNO, 1-Hydroxy-2-nonylquinolin-4(1H)-one]
[1]; CEAtg female mice, 20 μl of 50 μM topical 2 h after infection, swabs 20 h later, FIG. 7
  Number of re-isolated gonococci (vaginal colonization): significantly (***; p<0.001) reduces the number of re-isolated gonococci; also recorded: completely blocks vaginal colonization
[1]; CEAtg mice, 10 μl of 25 μM or 50 μM intravaginally 1 h after infection, swabs 24 h later, FIG. 15
  Re-isolated gonococci from the genital tract: hardly any gonococci could be re-isolated
[2]
  Time stable in serum-containing cell culture medium: at least 4 days
